# Experimental data published in patent publication US20120087864A1, “METHOD FOR DIAGNOSING AND/OR EVALUATING RETINAL DISEASE” (R-TECH UENO, LTD., priority 2010, published 2012).
# Where “and” joins values, the source holds several entries; their conditions need not be identical. Equal values may be shown once. Marks after values point to notes of the source that are not given here.
# What was measured:
# Type in all cases: in vivo, human
# [1] = tested on: patient with retinal pigmentosa; assay: NEI VFQ-25 (Compo 8) vision-related QOL questionnaire; conditions: 0.15% solution twice a day, after 24 weeks minus 0 week
# Procedure: (§1) One drop or two drops of isopropyl unoprostone 0.15 w/v % ophthalmic solution per one time was administered to each eye of patient with retinal pigmentosa daily for 24 weeks, and the following items were examined. 112 patients participated this test.
# Change in The 25-Item National Eye Institute Visual Function Questionnaire (NEI VFQ-25) Compo 8:
# Original NEI VFQ-25 (The 25-item National Eye Institute Visual Function Questionnaire) for evaluation of vision-related QOL of a patient is constituted from visual functions in various living scenes, and 12 subscales (questions of 25 items) for measurement of the degree of restrictions of vision-related physical, mental and social living scenes. In the present test, a questionnaire of Compo 8 constituted from 8 subscales with exception of general health, driving, peripheral vision and ocular pain among the subscales was used. At the time of completion of the pre-observation period (0 week) and completion of the treatment (24 weeks), a change value of score (the value after 24 weeks minus the value at 0 week) was evaluated.
# [2] = tested on: patient with retinal pigmentosa; assay: Safety evaluation: side effects until completion of medication (24 weeks)
# Text: Safety evaluation (1. Adverse event, 2. Side effect, 3. Ophthalmologic examination, Vital signs, Clinical examination result)
# A list of items of the side effect confirmed until completion of medication (24 weeks) in Test Example 1, and the number of appearance cases and the appearance ratio of the side effect of each group are shown in Table 10.
# [3] = tested on: patient with retinal pigmentosa; assay: Humphrey visual field test, retinal sensitivity of central 2 degrees (4 points); conditions: 0.15% solution twice a day
# Procedure: as §1
# Change in retinal sensitivity of central 2 degrees (4 points) through Humphrey visual field test
# (§2) The above ophthalmic solution of Formulation Example 1 was used as the test drug.
# (§3) (1) Dosage regimen: Instillation twice* a day, one drop of a first solution was instilled at the time of first instillation and, after 5 minute, one drop of a second solution was instilled into both eyes.
# Between-group comparison of the change value of Humphrey central 4 points retinal sensitivity was made every measurement time point.
# [4] = tested on: patient with retinal pigmentosa; assay: Intraocular pressure (IOP) over the 24-week measurement period; conditions: one drop and two drop groups
# [5] = tested on: patient with retinal pigmentosa; assay: Humphrey visual field test (SITA-Standard, central 10-2) retinal sensitivity (MD value), 24-week placebo-controlled clinical test; conditions: 0.15% solution twice a day; for change value of Humphrey central 10-2 retina sensitivity (MD value): change from before treatment
# Procedure: as §1
# Change in retinal sensitivity through Humphrey visual field test (SITA-Standard, 10-2)
# as §2, §3
# Since subjective symptoms depend on one eye having better visual function than the other, when both eyes satisfy the all selection criteria, the eye having better desimal visual acuity was adopted as the eye for evaluation of efficacy. When both eyes have the same desimal visual acuity, right eye was adopted as the eye for evaluation of efficacy
# Between-group comparison of the average of Humphrey central 10-2 retina sensitivity (MD value) was made every measurement time point.
# Between-group comparison of the change value of Humphrey central 10-2 retina sensitivity (MD value) was made every measurement time point.
# [6] = one drop per time group, after 4 weeks
# [7] = one drop per time group, after 8 weeks
# [8] = one drop per time group, after 16 weeks
# [9] = one drop per time group, after 24 weeks
# [10] = two drops per time group, after 4 weeks
# [11] = two drops per time group, after 8 weeks
# [12] = two drops per time group, after 16 weeks
# [13] = two drops per time group, after 24 weeks
compound,measurement,setting,value
"CCCCCCCC(=O)CC[C@@H]1[C@@H](C/C=C\CCCC(=O)OC(C)C)[C@@H](O)C[C@H]1O [isopropyl unoprostone, (+)-isopropyl (Z)-7-[(1R,2R,3R,5S)-3,5-dihydroxy-2-(3-oxodecyl)cyclopentyl]hept-5-enoate]","change value of VFQ-25 subscale ""vision-related social function""",[1]; one drop per time group,−2.3
same,change value of VFQ-25 summary score,[1]; one drop per time group,−1.1
same,"change value of VFQ-25 subscale ""vision-related social function""",[1]; two drops per time group,6.6*^†
same,change value of VFQ-25 summary score,[1]; two drops per time group,2.69^†
same,serious side effect,[2]; any group (one drop and two drops per time),no serious side effect
same,"All side effects, number of appearance cases",[2]; one drop per time (39 cases),28 (71.8%) cases (%) and 28 (71.8) cases (%)
same,"Bloodshot eyes, number of appearance cases",[2]; one drop per time (39 cases),1 (2.6) cases (%)
same,"Bloodshot, number of appearance cases",[2]; one drop per time (39 cases),0 (0.0) cases (%)
same,"Dry eye, number of appearance cases",[2]; one drop per time (39 cases),1 (2.6) cases (%)
same,"Eye abnormality, number of appearance cases",[2]; one drop per time (39 cases),0 (0.0) cases (%)
same,"Eye irritation, number of appearance cases",[2]; one drop per time (39 cases),9 (23.1) cases (%)
same,"Eye pruritus, number of appearance cases",[2]; one drop per time (39 cases),1 (2.6) cases (%)
same,"Eye swelling, number of appearance cases",[2]; one drop per time (39 cases),1 (2.6) cases (%)
same,"Foreign body sensation, number of appearance cases",[2]; one drop per time (39 cases),1 (2.6) cases (%)
same,"Hypertrichosis, number of appearance cases",[2]; one drop per time (39 cases),0 (0.0) cases (%)
same,"Irritation of applied site, number of appearance cases",[2]; one drop per time (39 cases),13 (33.3) cases (%)
same,"Macular edema, number of appearance cases",[2]; one drop per time (39 cases),1 (2.6) cases (%)
same,"Macular hole, number of appearance cases",[2]; one drop per time (39 cases),0 (0.0) cases (%)
same,"Punctate keratitis, number of appearance cases",[2]; one drop per time (39 cases),4 (10.3) cases (%)
same,"All side effects, number of appearance cases",[2]; two drops per time (38 cases),21 (55.3%) cases (%) and 21 (55.3) cases (%)
same,"Bloodshot eyes, number of appearance cases",[2]; two drops per time (38 cases),0 (0.0) cases (%)
same,"Bloodshot, number of appearance cases",[2]; two drops per time (38 cases),1 (2.6) cases (%)
same,"Dry eye, number of appearance cases",[2]; two drops per time (38 cases),0 (0.0) cases (%)
same,"Eye abnormality, number of appearance cases",[2]; two drops per time (38 cases),1 (2.6) cases (%)
same,"Eye irritation, number of appearance cases",[2]; two drops per time (38 cases),4 (10.5) cases (%)
same,"Eye pruritus, number of appearance cases",[2]; two drops per time (38 cases),1 (2.6) cases (%)
same,"Eye swelling, number of appearance cases",[2]; two drops per time (38 cases),0 (0.0) cases (%)
same,"Foreign body sensation, number of appearance cases",[2]; two drops per time (38 cases),0 (0.0) cases (%)
same,"Hypertrichosis, number of appearance cases",[2]; two drops per time (38 cases),1 (2.6) cases (%)
same,"Irritation of applied site, number of appearance cases",[2]; two drops per time (38 cases),13 (34.2) cases (%)
same,"Macular edema, number of appearance cases",[2]; two drops per time (38 cases),0 (0.0) cases (%)
same,"Macular hole, number of appearance cases",[2]; two drops per time (38 cases),0 (0.0) cases (%)
same,"Punctate keratitis, number of appearance cases",[2]; two drops per time (38 cases),4 (10.5) cases (%)
same,change value of Humphrey central 4 points retinal sensitivity,[3]; [6],−0.178
same,change value of Humphrey central 4 points retinal sensitivity,[3]; [7],0.158
same,change value of Humphrey central 4 points retinal sensitivity,[3]; [8],0.336
same,change value of Humphrey central 4 points retinal sensitivity,[3]; [9],0.334
same,change value of Humphrey central 4 points retinal sensitivity,[3]; [10],0.714
same,change value of Humphrey central 4 points retinal sensitivity,[3]; [11],0.821
same,change value of Humphrey central 4 points retinal sensitivity,[3]; [12],1.253*^†1
same,change value of Humphrey central 4 points retinal sensitivity,[3]; [13],2.009 and 2.009*^†1†2
same,decrease of intraocular pressure (IOP) as compared to the placebo,[4],greater decrease in IOP
same,average of Humphrey central 10-2 retina sensitivity (MD value),"[5]; one drop per time group, 0 week (before treatment)",−14.116 dB
same,average of Humphrey central 10-2 retina sensitivity (MD value),[5]; [6],−13.952 dB
same,average of Humphrey central 10-2 retina sensitivity (MD value),[5]; [7],−14.074 dB
same,change value of Humphrey central 10-2 retina sensitivity (MD value),[5]; [7],0.042 dB
same,average of Humphrey central 10-2 retina sensitivity (MD value),[5]; [8],−13.768 dB
same,change value of Humphrey central 10-2 retina sensitivity (MD value),[5]; [8],0.136 dB
same,average of Humphrey central 10-2 retina sensitivity (MD value),[5]; [9],−13.699 dB
same,change value of Humphrey central 10-2 retina sensitivity (MD value),[5]; [9],0.417 dB
same,average of Humphrey central 10-2 retina sensitivity (MD value),"[5]; two drops per time group, 0 week (before treatment)",−18.376 dB
same,average of Humphrey central 10-2 retina sensitivity (MD value),[5]; [10],−17.671† dB
same,change value of Humphrey central 10-2 retina sensitivity (MD value),[5]; [10],0.831 dB
same,average of Humphrey central 10-2 retina sensitivity (MD value),[5]; [11],−17.810 dB
same,change value of Humphrey central 10-2 retina sensitivity (MD value),[5]; [11],0.696* dB
same,average of Humphrey central 10-2 retina sensitivity (MD value),[5]; [12],−17.341† dB
same,change value of Humphrey central 10-2 retina sensitivity (MD value),[5]; [12],0.777 dB
same,average of Humphrey central 10-2 retina sensitivity (MD value),[5]; [13],−17.411† dB
same,change value of Humphrey central 10-2 retina sensitivity (MD value),[5]; [13],0.891 dB
